Laboratory results as given in patent publication US10745382B2 (BRISTOL-MYERS SQUIBB COMPANY, priority 2015, dated 2020).
Where two headings read alike, the source gives them in different places.

Target: T1, PD-1/PD-L1 (Homo sapiens, UniProt Q9NZQ7)
T1 construct: made in house; host or cells: HEK293T
Assay: PD-1/PD-L1 Homogenous Time-Resolved Fluorescence (HTRF) binding assay
Settings: PD-L1-His 10 nM, PD-1-Ig 20 nM, read-out: Range or IC50
Summary of the method: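 Additional pairs run were PD-1-Ig with PD-L2-His (20 & 5 nM) and CD80-His with PD-L1-Ig (100 & 10 nM), all human proteins. Buffer: dPBS plus 0.1% BSA, 0.05% Tween-20; time-resolved FRET read-out via 1 nM Eu-cryptate anti-Ig and 20 nM APC anti-His, final concentrations.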

T1 sequence (Q9NZQ7 with tags, fused parts or gaps): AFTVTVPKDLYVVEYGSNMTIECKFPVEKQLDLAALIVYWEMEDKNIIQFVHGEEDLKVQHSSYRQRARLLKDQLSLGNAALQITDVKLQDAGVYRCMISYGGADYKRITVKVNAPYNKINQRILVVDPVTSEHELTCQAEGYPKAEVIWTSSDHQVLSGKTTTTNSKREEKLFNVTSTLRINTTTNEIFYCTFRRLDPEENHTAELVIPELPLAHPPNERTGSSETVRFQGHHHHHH

| SMILES | IC50 (value given as range class) [nM] | IC50 (numeric IC50) [nM] |
| --- | --- | --- |
| Cc1c(OCCCN2CCCCC2)cccc1-c1cccc(COc2cc(OCc3cncc(C#N)c3)c(CN3CCCC[C@H]3C(=O)O)cc2Cl)c1Cl [Example 2306, (S)-1-(5-chloro-4-((2-chloro-2′-methyl-3′-(3-(piperidin-1-yl)propoxy)-[1,1′-biphenyl]-3-yl)methoxy)-2-((5-cyanopyridin-3-yl)methoxy)benzyl)piperidine-2-carboxylic Acid] | 0.21 to 10 |  |
| Cc1c(OCCCN2CCCCC2)cccc1-c1cccc(COc2cc(OCc3cncc(C#N)c3)c(CNC(C)(CO)CO)cc2Cl)c1Cl [Example 2308, 5-((4-chloro-5-((2-chloro-2′-methyl-3′-(3-(piperidin-1-yl)propoxy)-[1,1′-biphenyl]-3-yl)methoxy)-2-(((1,3-dihydroxy-2-methylpropan-2-yl)amino)methyl)phenoxy)methyl)nicotinonitrile] | 0.21 to 10 |  |
| Cc1c(OCCCN2CCS(=O)(=O)CC2)cccc1-c1cccc(COc2cc(OCc3cncc(C#N)c3)c(CN3CCCC[C@H]3C(=O)O)cc2Cl)c1Cl [Example 2310, (S)-1-(5-chloro-4-((2-chloro-3′-(3-(1,1-dioxidothiomorpholino)propoxy)-2′-methyl-[1,1′-biphenyl]-3-yl)methoxy)-2-((5-cyanopyridin-3-yl)methoxy)benzyl)piperidine-2-carboxylic Acid] | 0.21 to 10 |  |
| CC(=O)N[C@H]1CCN(CCCOc2cccc(-c3cccc(COc4cc(OCc5cncc(C#N)c5)c(CNC(CO)CO)cc4Cl)c3Cl)c2C)C1 [Example 2311, (S)—N-(1-(3-((2′-chloro-3′-((2-chloro-5-((5-cyanopyridin-3-yl)methoxy)-4-(((1,3-dihydroxypropan-2-yl)amino)methyl)phenoxy)methyl)-2-methyl-[1,1′-biphenyl]-3-yl)oxy)propyl)pyrrolidin-3-yl)acetamide] | 0.21 to 10 |  |
| Cc1c(OCCCN2CC[C@@H](O)C2)cccc1-c1cccc(COc2cc(OCc3cncc(C#N)c3)c(CN(CCc3cncc(C#N)c3)C(CO)CO)cc2Cl)c1Cl [Example 2312, (R)-5-(2-((5-chloro-4-((2-chloro-3′-(3-(3-hydroxypyrrolidin-1-yl)propoxy)-2′-methyl-[1,1′-biphenyl]-3-yl)methoxy)-2-((5-cyanopyridin-3-yl)methoxy)benzyl)(1,3-dihydroxypropan-2-yl)amino)ethyl)nicotinonitrile] | 0.21 to 10 |  |
| C=CCOc1cc(OCc2cccc(-c3cccc(OCCCN4CC[C@@H](O)C4)c3C)c2Cl)c(Cl)cc1CNC(CO)CO [Example 2313, (R)-2-((2-(allyloxy)-5-chloro-4-((2-chloro-3′-(3-(3-hydroxypyrrolidin-1-yl)propoxy)-2′-methyl-[1,1′-biphenyl]-3-yl)methoxy)benzyl)amino)propane-1,3-diol] | 0.21 to 10 |  |
| Cc1c(OCCCN2CC[C@@H](O)C2)cccc1-c1cccc(COc2cc(OCC#N)c(CNC(CO)CO)cc2Cl)c1Cl [Example 2314, (R)-2-(4-chloro-5-((2-chloro-3′-(3-(3-hydroxypyrrolidin-1-yl)propoxy)-2′-methyl-[1,1′-biphenyl]-3-yl)methoxy)-2-(((1,3-dihydroxypropan-2-yl)amino)methyl)phenoxy)acetonitrile] | 0.21 to 10 |  |
| Cc1c(OCCCN2CC[C@@H](O)C2)cccc1-c1cccc(COc2cc(OCC(=N)N3CC[C@@H](O)C3)c(CNC(CO)CO)cc2Cl)c1Cl [Example 2315, 2-((5-chloro-4-((2-chloro-3′-(3-((R)-3-hydroxypyrrolidin-1-yl)propoxy)-2′-methyl-[1,1′-biphenyl]-3-yl)methoxy)-2-(2-((R)-3-hydroxypyrrolidin-1-yl)-2-iminoethoxy)benzyl)amino)propane-1,3-diol] | 0.21 to 10 |  |
| Cc1c(OCCCN2CC[C@@H](O)C2)cccc1-c1cccc(COc2cc(OCC(N)=O)c(CNC(CO)CO)cc2Cl)c1Cl [Example 2316, (R)-2-(4-chloro-5-((2-chloro-3′-(3-(3-hydroxypyrrolidin-1-yl)propoxy)-2′-methyl-[1,1′-biphenyl]-3-yl)methoxy)-2-(((1,3-dihydroxypropan-2-yl)amino)methyl)phenoxy)acetamide] | 0.21 to 10 |  |
| Cc1c(OCCCN2CC[C@@H](O)C2)cccc1-c1cccc(COc2cc(OCC(=O)N(C)C)c(CNC(CO)CO)cc2Cl)c1Cl [Example 2317, (R)-2-(4-chloro-5-((2-chloro-3′-(3-(3-hydroxypyrrolidin-1-yl)propoxy)-2′-methyl-[1,1′-biphenyl]-3-yl)methoxy)-2-(((1,3-dihydroxypropan-2-yl)amino)methyl)phenoxy)-N,N-dimethylacetamide] | 0.21 to 10 |  |
| Cc1c(COc2cc(OCc3cncc(C#N)c3)c(CNC(C)(C)C)cc2Cl)cccc1-c1cccc(OCCCN2CC[C@@H](O)C2)c1C [Example 2326, (R)-5-((2-((tert-butylamino)methyl)-4-chloro-5-((3′-(3-(3-hydroxypyrrolidin-1-yl)propoxy)-2,2′-dimethyl-[1,1′-biphenyl]-3-yl)methoxy)phenoxy)methyl)nicotinonitrile] | 0.21 to 10 |  |
| Cc1c(COc2cc(OCc3cncc(C#N)c3)c(CN[C@@](C)(CO)C(=O)O)cc2Cl)cccc1-c1cccc(OCCCN2CC(=O)NC(=O)C2)c1C [Example 2327, (S)-2-((5-chloro-2-((5-cyanopyridin-3-yl)methoxy)-4-((3′-(3-(3,5-dioxopiperazin-1-yl)propoxy)-2,2′-dimethyl-[1,1′-biphenyl]-3-yl)methoxy)benzyl)amino)-3-hydroxy-2-methylpropanoic Acid] | 0.21 to 10 |  |
| Cc1c(COc2cc(OCc3cncc(C#N)c3)c(CN[C@@](C)(CO)C(=O)O)cc2Cl)cccc1-c1cccc(OCCCN2CCN(C)C(=O)C2)c1C [Example 2328, (S)-2-((5-chloro-2-((5-cyanopyridin-3-yl)methoxy)-4-((2,2′-dimethyl-3′-(3-(4-methyl-3-oxopiperazin-1-yl)propoxy)-[1,1′-biphenyl]-3-yl)methoxy)benzyl)amino)-3-hydroxy-2-methylpropanoic Acid] | 0.21 to 10 |  |

More lines, now with the values ahead:

| IC50 (value given as range class) [nM] | IC50 (numeric IC50) [nM] | SMILES |
| --- | --- | --- |
| 0.21 to 10 |  | Cc1c(OCCCNC[C@H](O)CO)cccc1-c1cccc(COc2cc(OCc3cncc(C#N)c3)c(CNC(C)(CO)CO)cc2Cl)c1Cl [Example 2307, (S)-5-((4-chloro-5-((2-chloro-3′-(3-((2,3-dihydroxypropyl)amino)propoxy)-2′-methyl-[1,1′-biphenyl]-3-yl)methoxy)-2-(((1,3-dihydroxy-2-methylpropan-2-yl)amino)methyl)phenoxy)methyl)nicotinonitrile] |
|  | 3 | Cc1c(OCCCN2CCOCC2)cccc1-c1cccc(COc2cc(OCc3cncc(C#N)c3)c(CN3CCCC[C@H]3C(=O)O)cc2Cl)c1Cl [Example 2309, (S)-1-(5-chloro-4-((2-chloro-2′-methyl-3′-(3-morpholinopropoxy)-[1,1′-biphenyl]-3-yl)methoxy)-2-((5-cyanopyridin-3-yl)methoxy)benzyl)piperidine-2-carboxylic Acid] |
| 0.21 to 10 |  | Cc1c(OCCCN2CC[C@@H](O)C2)cccc1-c1cccc(COc2cc(OCC(F)F)c(CNC(CO)CO)cc2Cl)c1Cl [Example 2318, (R)-2-((5-chloro-4-((2-chloro-3′-(3-(3-hydroxypyrrolidin-1-yl)propoxy)-2′-methyl-[1,1′-biphenyl]-3-yl)methoxy)-2-(2,2-difluoroethoxy)benzyl)amino)propane-1,3-diol] |
| 0.21 to 10 |  | Cc1c(OCCCN2CC[C@@H](O)C2)cccc1-c1cccc(COc2cc(OCC3CC3)c(CNC(CO)CO)cc2Cl)c1Cl [Example 2319, (R)-2-((5-chloro-4-((2-chloro-3′-(3-(3-hydroxypyrrolidin-1-yl)propoxy)-2′-methyl-[1,1′-biphenyl]-3-yl)methoxy)-2-(cyclopropylmethoxy)benzyl)amino)propane-1,3-diol] |
| 0.21 to 10 |  | Cc1c(OCCCN2CC[C@@H](O)C2)cccc1-c1cccc(COc2cc(OCC3CC3(F)F)c(CNC(CO)CO)cc2Cl)c1Cl (stereo partly drawn) [Example 2320, 2-((5-chloro-4-((2-chloro-3′-(3-((R)-3-hydroxypyrrolidin-1-yl)propoxy)-2′-methyl-[1,1′-biphenyl]-3-yl)methoxy)-2-((2,2-difluorocyclopropyl)methoxy)benzyl)amino)propane-1,3-diol] |
| 0.21 to 10 |  | CC(C)=CCOc1cc(OCc2cccc(-c3cccc(OCCCN4CC[C@@H](O)C4)c3C)c2Cl)c(Cl)cc1CNC(CO)CO [Example 2321, (R)-2-((5-chloro-4-((2-chloro-3′-(3-(3-hydroxypyrrolidin-1-yl)propoxy)-2′-methyl-[1,1′-biphenyl]-3-yl)methoxy)-2-((3-methylbut-2-en-1-yl)oxy)benzyl)amino)propane-1,3-diol] |
| 0.21 to 10 |  | Cc1c(COc2cc(OCc3cncc(C#N)c3)c(CNC(CO)CO)cc2Cl)cccc1-c1cccc(OC[C@H]2CCNC2)c1C [Example 2323, (S)-5-((4-chloro-2-(((1,3-dihydroxypropan-2-yl)amino)methyl)-5-((2,2′-dimethyl-3′-(pyrrolidin-3-ylmethoxy)-[1,1′-biphenyl]-3-yl)methoxy)phenoxy)methyl)nicotinonitrile] |
| 0.21 to 10 |  | Cc1c(COc2cc(OCc3cncc(C#N)c3)c(CNC(C)(CO)CO)cc2Cl)cccc1-c1cccc(OCCCN2CC[C@@H](O)C2)c1C [Example 2324, (R)-5-((4-chloro-2-(((1,3-dihydroxy-2-methylpropan-2-yl)amino)methyl)-5-((3′-(3-(3-hydroxypyrrolidin-1-yl)propoxy)-2,2′-dimethyl-[1,1′-biphenyl]-3-yl)methoxy)phenoxy)methyl)nicotinonitrile] |
| 0.21 to 10 |  | Cc1c(COc2cc(OCc3cncc(C#N)c3)c(CN(C)C(CO)CO)cc2Cl)cccc1-c1cccc(OCCCN2CC[C@@H](O)C2)c1C [Example 2325, (R)-5-((4-chloro-2-(((1,3-dihydroxypropan-2-yl)(methyl)amino)methyl)-5-((3′-(3-(3-hydroxypyrrolidin-1-yl)propoxy)-2,2′-dimethyl-[1,1′-biphenyl]-3-yl)methoxy)phenoxy)methyl)nicotinonitrile] |
